The source of these data is article PMC7143076, “Anion Inhibition Studies of the β-Class Carbonic Anhydrase CAS3 from the Filamentous Ascomycete Sordaria macrospora” (Metabolites, 2020).

The first test deals with T1, CAS3 (Sordaria macrospora, UniProt F7VU04).
T1 construct: gene SMAC_03179
T1 sequence (F7VU04 1-174 limits assumed): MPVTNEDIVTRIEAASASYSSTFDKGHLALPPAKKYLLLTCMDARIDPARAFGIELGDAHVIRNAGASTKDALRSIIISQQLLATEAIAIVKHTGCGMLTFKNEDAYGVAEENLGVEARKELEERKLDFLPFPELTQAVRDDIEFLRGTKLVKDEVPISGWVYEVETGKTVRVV
Nature of the test: stopped-flow CO2 hydrase assay. The class given is biochemical. Particulars: read-out: CAS2 ^b; CO2 1.7-17 mM; pH 8.3, 10-20 mM TRIS, 10 mM NaClO4, 20 °C; 15 min preincubation; sodium salt.
For `O=C(O)O` [CO3^2-], the Ki worked out at 8 mM.

Still in this test, the particulars now being: read-out: CAS3 ^c.
`O=[Se](=O)(O)O` [SeO4^2-]: the Ki turned out to be 3.4 mM.

In the case of `S` [HS^-], the Ki was 8.3 mM.

With `O=[Te](=O)(O)O` [TeO4^2-], the Ki was determined as 8.1 mM. Consider `N#C[SeH]` [SeCN^-], for which the Ki stood at 7.1 mM. Turning to `N#CO` [CNO^-], the Ki is 3.2 mM.

`[N-]=[N+]=[N-]` [N3^-]: the Ki was 7.2 mM.

Still in this test, the particulars now being: read-out: CAS3 ^c; CO2 1.7-17 mM; pH 8.3, 10-20 mM TRIS, 10 mM NaClO4, 20 °C; 15 min preincubation.
As to `NS(N)(=O)=O` [H2NSO2NH2], the Ki stood at 0.094 mM.

Regarding `OB(O)c1ccccc1` [Ph-B(OH)2], the Ki was found to be 0.097 mM.

Still in this test, the particulars now being: read-out: CAS3 ^c; CO2 1.7-17 mM; pH 8.3, 10-20 mM TRIS, 10 mM NaClO4, 20 °C; 15 min preincubation; sodium salt.
For `NS(=O)(=O)O` [H2NSO3H], the Ki came to 0.095 mM. For `S=C(S)S` [CS3^2-], the Ki came to 8.6 mM. Same read-out and setting: the value for `CCN(CC)C(=S)S` [Et2NCS2^-] was 0.89 mM; that for `O=[N+]([O-])O` [NO3^-] was 8.5 mM; that for `N#CS` [SCN^-] was 7.3 mM. Still for that read-out and setting: with `O=NO` [NO2^-] the figure was 8.3 mM; with `O=C(O)O` [HCO3^-], 3.4 mM.
